Consider 1 molecule from patent US6004952A, “Micacocidin derivatives” (Shinogi & Co., Ltd., priority 1996, dated 1999).

In general, MIC refers to the least concentration at which growth counts as inhibited. Read a low MIC as greater potency.

≈ marks a conversion by molar mass, not a printed value.

One assay deals with Branhamella catarrhalis. Description: MIC, Branhamella catarrhalis. The format is cell-based. The note with it: Moraxella catarrhalis; B. catarrhalis A 25238. As for the experimental part: Thus, sensitivity-disc medium (Nissui) was used as a sensitivity determination medium, to which about 1 μl of 10^6 CFU/ml of the bacterial suspension was inoculated.
Another assay relates to C. trachmatis. In words: MIC, C. trachmatis. In kind it is cell-based. The note with it: C. trachmatis D/UW-3/CX.
In another assay the test system is Candida albicans. In words: Antifungal activity, micro-liquid dilution method, Candida albicans. In kind it is cell-based, Candida albicans strain Ca-15. The note with it: 24 hours, 30° C. On the procedure: (§1) Antifungal activities of the compounds to Candida albicans (strain Ca-15) and Asperilhm fumigatus (strain MA), representative pathogenic fungi, were determined by micro-liquid dilution method using 96-well microplates. A fungal suspension stored under freezing was adjusted to 1×1 O^5 CFU/ml by medium, of which 100 μl portions were charged into each well. The compound of the present invention was dissolved in dimethylsulfoxide (DMSO). Using the resultant solution, 2-fold dilution series were prepared together with the fungal suspension charged into the wells. YNB medium and RPMI medium were used. After cultured for 24 hours at 30° C., evaluation was performed by detecting the turbidity (wave length: 595 nm) using microplate reader.

The next assay deals with Aspergillus fumigatus. In words: Antifungal activity, micro-liquid dilution method, Aspergillus fumigatus. The format is cell-based, Aspergillus fumigatus strain MA. The note with it: 24 hours, 30° C. As for the experimental part:
as §1

A further assay concerns E. avium. Description: MIC, agar dilution method, E. avium. The note with it: Enterococcus avium. On the technique in general: In agar dilution, organisms are placed on agar that contains the substance at set levels.
The subject of the next assay is M. pneumoniae. In words: MIC, liquid dilution method, Mycoplasma pneumoniae. The note with it: Mycoplasmoides pneumoniae.
The test system of assay [1] is M. gallisepticum. In words: MIC, liquid dilution method, Mycoplasma gallisepticum. The note with it: Mycoplasmoides gallisepticum.
The test system of another assay is M. hyopneumoniae. In words: MIC, liquid dilution method, Mycoplasma hyopneumoniae. The note with it: Mesomycoplasma hyopneumoniae.
In assay [2] the test system is M. gallisepticum. In words: In vivo evaluation test for M. gallisepticum in chickens (air-sac lesions). The note with it: 6 chickens tested.

Turning to `CCCCCc1cccc(O)c1C1=NC(C2SCC(C(O)C(C)(C)C3=NC(C)(C(=O)O)CS3)N2C)CS1` (stereo not shown) [Compound 9], the MIC in the assay with Branhamella catarrhalis turned out to be 3.13 µg/mL (≈ 5.53 µM); in the assay with C. trachmatis, 16 µg/mL (≈ 28.3 µM); against E. avium it was 1.56 µg/mL (≈ 2.76 µM); with M. pneumoniae, 0.00625 µg/mL (≈ 0.011 µM); against M. gallisepticum [1] it was 0.2 µg/mL (≈ 0.353 µM); against M. hyopneumoniae it was 0.025 µg/mL (≈ 0.0442 µM). The “Antifungal activities: IC50” value with Candida albicans (RPMI medium) is 1.6 µg/mL; in the assay with Candida albicans (YNB medium), 6.3 µg/mL; with Aspergillus fumigatus (RPMI medium) it was 0.2 µg/mL; in the assay with Aspergillus fumigatus (YNB medium), 3.2 µg/mL. The “air-sac lesions (the number of chickens): (+) slight” value was found to be 0 in the assay on M. gallisepticum [2] (25 mg/kg × 1, orally); 1 with M. gallisepticum [2] (50 mg/kg × 1, orally); 0 in the assay on M. gallisepticum [2] (100 mg/kg × 1, orally). For the same molecule, the “air-sac lesions (the number of chickens): (++-+++) moderate to severe” value with M. gallisepticum [2] (25 mg/kg × 1, orally) is listed as 2; in the assay with M. gallisepticum [2] (50 mg/kg × 1, orally) it was 1; in the assay with M. gallisepticum [2] (100 mg/kg × 1, orally) it was 1. For the same molecule, the “air-sac lesions (the number of chickens): (-) non” value with M. gallisepticum [2] (25 mg/kg × 1, orally) is listed as 4; with M. gallisepticum [2] (50 mg/kg × 1, orally), 4; with M. gallisepticum [2] (100 mg/kg × 1, orally), 5. Besides, the “number of chickens having lesions” value amounted to 2 in the assay on M. gallisepticum [2] (25 mg/kg × 1, orally); 2 with M. gallisepticum [2] (50 mg/kg × 1, orally); 1 in the assay with M. gallisepticum [2] (100 mg/kg × 1, orally).
